Test results as given in PMC9971899, “Identification and structural analysis of a carbohydrate-binding module specific to alginate, a representative of a new family, CBM96” (The Journal of Biological Chemistry, 2022).
“And” between values parts separate entries of the source, which are not always exact repeats. Identical values can stand only once.

Experiments:
[1] = molecular target: T1, TM6-N4 (Defluviitalea phaphyphila, UniProt A0A4Y5UXE1); test: Isothermal titration calorimetry (MicroCal PEAQ-ITC) of 20 uM TM6-N4 with 200 uM oligoalginate in 20 mM Tris-HCl pH 7.0 without NaCl at 25 °C, one-site binding model, triplicate for most ligands.; conditions: SD, n = 3
T1 construct: gene Dp0100; TM6-N4 truncation of Dp0100 (187 amino acids, within TM6 segment 1020-1446, without CBM35), His tag, produced in E. coli BL21 (DE3); monomer, Ca2+ in crystal structure
Description: (§1) To characterize the binding of TM6-N4 to alginate, isothermal titration calorimetry (ITC) experiments were carried out at 25 °C and pH 7.0, with alginate and oligoalginate standards including G3, G4, G5, G6, G7, M3, M5, M6, and M7 as substrate and TM6-N4 as the enzyme. […] Nevertheless, G3 produced a profile of CBM–ligand interaction (Fig. 2A). It is thus likely that the binding sites of TM6-N4 required at least three uronic acid units to yield stable binding complexes. […] These discrepancies may reflect the fact that one alginate chain has accommodated several protein molecules and the fact of the thermodynamic instability of the long alginate chain.
(§2) Figure 2 Thermograms (upper panels) and binding isotherms with theoretical fits (lower panels) obtained for the binding. G3 (A), G4 (B), G5 (C), G6 (D), G7 (E), M3 (F), M5 (G), M6 (H), M7 (I), and alginate (J) to TM6-N4. The buffer used was 20 mM Tris–HCl buffer, pH 7.0. Protein concentration was 20 μM for TM6-N4.
(§3) The proteins were dialyzed extensively against buffer with 20 mM Tris–HCl (pH 7.0) without NaCl and adjusted concentration to 20 μM, and the oligosaccharide ligands (purity ≥95%; Qingdao BZ Oligo Biotech Co Ltd) or alginate ligands (viscosity >0.02 Pa·s, 1% alginate in H2O at 25 °C) were dissolved in the same buffer to minimize heats of dilution with a concentration of 200 μM. To avoid bubble formation, all the samples were degassed by centrifugation at 12,000 rpm/10 min. Calorimetric titration was performed with MicroCal PEAQ-ITC (Malvern Panalytical). During a titration experiment, the protein sample was stirred at a speed of 750 rpm and kept a constant temperature of 25 °C, and the titration needle was filled with 80 μl oligosaccharide or alginate ligand. Titrations were completed after 19 injections (each 3 μl) at an interval of 150 s. The data were analyzed by using the one-site binding model in the MicroCal PEAQ-ITC Analysis software. The fitted data yielded the dissociation constant (Kd), the number of binding sites on the protein (n), and the enthalpy of binding (ΔH). Other thermodynamic parameters can be calculated by using the standard thermodynamic equation ΔG = −RTln Ka = ΔH-TΔS. Titrations were carried out in triplicate for most ligands, and the errors are the SD of the mean of these replicates.

[2] = test system: TM6-N4; test: Isothermal titration calorimetry of alginate and oligoalginate binding to TM6-N4; design: species or system Defluviitalea phaphyphila; conditions: ITC, 25 °C, pH 7.0; for TΔS: calculated from ΔG = ΔH-TΔS; for ΔG (binding free energy change): calculated from ΔG = −RTln Ka
Description: as §1, §2, §3

Row | SMILES | Kd [1] | ΔH [2] | TΔS [2] | ΔG (binding free energy change) [2]
1 | O=C(O)[C@@H]1O[C@@H](O[C@H]2[C@H](O)[C@H](O)[C@H](O[C@H]3[C@H](O)[C@H](O)C(O)O[C@H]3C(=O)O)O[C@H]2C(=O)O)[C@@H](O)[C@@H](O)[C@@H]1O (stereo partly drawn) [G3, alpha-L-guluronate trisaccharide (triguluronate)] | 3100 ± 100 nM | – | – | –
2 | O=C(O)[C@@H]1O[C@@H](O[C@H]2[C@H](O)[C@H](O)[C@H](O[C@H]3[C@H](O)[C@H](O)C(O)O[C@H]3C(=O)O)O[C@H]2C(=O)O)[C@@H](O)[C@@H](O)[C@@H]1O (some centres unmarked) [G3] | – | -15.1 ± 3.3 kcal/mol | -7.6 kcal/mol | -7.5 kcal/mol and -7.5 ± 0.1 kcal/mol
3 | O=C(O)[C@@H]1O[C@@H](O[C@H]2[C@H](O)[C@H](O)[C@H](O[C@H]3[C@H](O)[C@H](O)[C@H](O[C@H]4[C@H](O)[C@H](O)C(O)O[C@H]4C(=O)O)O[C@H]3C(=O)O)O[C@H]2C(=O)O)[C@@H](O)[C@@H](O)[C@@H]1O (stereo partly drawn) [G4, alpha-L-guluronate tetrasaccharide (tetraguluronate)] | 600 ± 100 nM | – | – | –
4 | O=C(O)[C@@H]1O[C@@H](O[C@H]2[C@H](O)[C@H](O)[C@H](O[C@H]3[C@H](O)[C@H](O)[C@H](O[C@H]4[C@H](O)[C@H](O)C(O)O[C@H]4C(=O)O)O[C@H]3C(=O)O)O[C@H]2C(=O)O)[C@@H](O)[C@@H](O)[C@@H]1O (some centres unmarked) [G4] | – | -7.3 ± 0.2 kcal/mol | 1.1 kcal/mol | -8.4 kcal/mol and -8.4 ± 0.1 kcal/mol
5 | O=C(O)[C@@H]1O[C@@H](O[C@H]2[C@H](O)[C@H](O)[C@H](O[C@H]3[C@H](O)[C@H](O)[C@H](O[C@H]4[C@H](O)[C@H](O)[C@H](O[C@H]5[C@H](O)[C@H](O)C(O)O[C@H]5C(=O)O)O[C@H]4C(=O)O)O[C@H]3C(=O)O)O[C@H]2C(=O)O)[C@@H](O)[C@@H](O)[C@@H]1O (stereo partly drawn) [G5, alpha-L-guluronate pentasaccharide (pentaguluronate)] | 500 ± 100 nM | – | – | –
6 | O=C(O)[C@@H]1O[C@@H](O[C@H]2[C@H](O)[C@H](O)[C@H](O[C@H]3[C@H](O)[C@H](O)[C@H](O[C@H]4[C@H](O)[C@H](O)[C@H](O[C@H]5[C@H](O)[C@H](O)C(O)O[C@H]5C(=O)O)O[C@H]4C(=O)O)O[C@H]3C(=O)O)O[C@H]2C(=O)O)[C@@H](O)[C@@H](O)[C@@H]1O (some centres unmarked) [G5] | – | -12.3 ± 0.4 kcal/mol | -3.6 kcal/mol | -8.6 kcal/mol and -8.6 ± 0.1 kcal/mol
7 | O=C(O)[C@@H]1O[C@@H](O[C@H]2[C@H](O)[C@H](O)[C@H](O[C@H]3[C@H](O)[C@H](O)[C@H](O[C@H]4[C@H](O)[C@H](O)[C@H](O[C@H]5[C@H](O)[C@H](O)[C@H](O[C@H]6[C@H](O)[C@H](O)C(O)O[C@H]6C(=O)O)O[C@H]5C(=O)O)O[C@H]4C(=O)O)O[C@H]3C(=O)O)O[C@H]2C(=O)O)[C@@H](O)[C@@H](O)[C@@H]1O (stereo partly drawn) [G6, alpha-L-guluronate hexasaccharide (hexaguluronate)] | 20 ± 20 nM | – | – | –
8 | O=C(O)[C@@H]1O[C@@H](O[C@H]2[C@H](O)[C@H](O)[C@H](O[C@H]3[C@H](O)[C@H](O)[C@H](O[C@H]4[C@H](O)[C@H](O)[C@H](O[C@H]5[C@H](O)[C@H](O)[C@H](O[C@H]6[C@H](O)[C@H](O)C(O)O[C@H]6C(=O)O)O[C@H]5C(=O)O)O[C@H]4C(=O)O)O[C@H]3C(=O)O)O[C@H]2C(=O)O)[C@@H](O)[C@@H](O)[C@@H]1O (some centres unmarked) [G6] | – | -8.6 ± 0.4 kcal/mol | 1.9 kcal/mol | -10.5 kcal/mol and -10.5 ± 0.1 kcal/mol
9 | O=C(O)[C@@H]1O[C@@H](O[C@H]2[C@H](O)[C@H](O)[C@H](O[C@H]3[C@H](O)[C@H](O)[C@H](O[C@H]4[C@H](O)[C@H](O)[C@H](O[C@H]5[C@H](O)[C@H](O)[C@H](O[C@H]6[C@H](O)[C@H](O)[C@H](O[C@H]7[C@H](O)[C@H](O)C(O)O[C@H]7C(=O)O)O[C@H]6C(=O)O)O[C@H]5C(=O)O)O[C@H]4C(=O)O)O[C@H]3C(=O)O)O[C@H]2C(=O)O)[C@@H](O)[C@@H](O)[C@@H]1O (stereo partly drawn) [G7, alpha-L-guluronate heptasaccharide (heptaguluronate)] | 300 ± 70 nM | – | – | –
10 | O=C(O)[C@@H]1O[C@@H](O[C@H]2[C@H](O)[C@H](O)[C@H](O[C@H]3[C@H](O)[C@H](O)[C@H](O[C@H]4[C@H](O)[C@H](O)[C@H](O[C@H]5[C@H](O)[C@H](O)[C@H](O[C@H]6[C@H](O)[C@H](O)[C@H](O[C@H]7[C@H](O)[C@H](O)C(O)O[C@H]7C(=O)O)O[C@H]6C(=O)O)O[C@H]5C(=O)O)O[C@H]4C(=O)O)O[C@H]3C(=O)O)O[C@H]2C(=O)O)[C@@H](O)[C@@H](O)[C@@H]1O (some centres unmarked) [G7] | – | -14.2 ± 0.4 kcal/mol | -5.4 kcal/mol | -8.9 kcal/mol and -8.9 ± 0.1 kcal/mol

Next, values leading:

Row | Kd [1] | ΔH [2] | TΔS [2] | ΔG (binding free energy change) [2] | SMILES
11 | 1200 ± 600 nM | – | – | – | O=C(O)[C@H]1O[C@@H](O[C@H]2[C@H](O)[C@H](O)[C@H](O[C@H]3[C@H](O)[C@H](O)[C@H](O[C@H]4[C@H](O)[C@H](O)[C@H](O[C@H]5[C@H](O)[C@H](O)C(O)O[C@@H]5C(=O)O)O[C@@H]4C(=O)O)O[C@@H]3C(=O)O)O[C@@H]2C(=O)O)[C@@H](O)[C@@H](O)[C@@H]1O (stereo partly drawn) [M5, mannuronate pentasaccharide (beta-D-mannuronate pentasaccharide)]
12 | – | -8.6 ± 1.2 kcal/mol | -0.6 kcal/mol | -8.1 kcal/mol and -8.1 ± 0.1 kcal/mol | O=C(O)[C@H]1O[C@@H](O[C@H]2[C@H](O)[C@H](O)[C@H](O[C@H]3[C@H](O)[C@H](O)[C@H](O[C@H]4[C@H](O)[C@H](O)[C@H](O[C@H]5[C@H](O)[C@H](O)C(O)O[C@@H]5C(=O)O)O[C@@H]4C(=O)O)O[C@@H]3C(=O)O)O[C@@H]2C(=O)O)[C@@H](O)[C@@H](O)[C@@H]1O (some centres unmarked) [M5, mannuronate pentasaccharide]
13 | 60 ± 60 nM | – | – | – | O=C(O)[C@H]1O[C@@H](O[C@H]2[C@H](O)[C@H](O)[C@H](O[C@H]3[C@H](O)[C@H](O)[C@H](O[C@H]4[C@H](O)[C@H](O)[C@H](O[C@H]5[C@H](O)[C@H](O)[C@H](O[C@H]6[C@H](O)[C@H](O)C(O)O[C@@H]6C(=O)O)O[C@@H]5C(=O)O)O[C@@H]4C(=O)O)O[C@@H]3C(=O)O)O[C@@H]2C(=O)O)[C@@H](O)[C@@H](O)[C@@H]1O (stereo partly drawn) [M6, beta-D-mannuronate hexasaccharide (hexamannuronate)]
14 | – | -3.5 ± 0.3 kcal/mol | 6.4 kcal/mol | -9.9 kcal/mol and -9.9 ± 0.1 kcal/mol | O=C(O)[C@H]1O[C@@H](O[C@H]2[C@H](O)[C@H](O)[C@H](O[C@H]3[C@H](O)[C@H](O)[C@H](O[C@H]4[C@H](O)[C@H](O)[C@H](O[C@H]5[C@H](O)[C@H](O)[C@H](O[C@H]6[C@H](O)[C@H](O)C(O)O[C@@H]6C(=O)O)O[C@@H]5C(=O)O)O[C@@H]4C(=O)O)O[C@@H]3C(=O)O)O[C@@H]2C(=O)O)[C@@H](O)[C@@H](O)[C@@H]1O (some centres unmarked) [M6]
15 | 200 ± 100 nM | – | – | – | O=C(O)[C@H]1O[C@@H](O[C@H]2[C@H](O)[C@H](O)[C@H](O[C@H]3[C@H](O)[C@H](O)[C@H](O[C@H]4[C@H](O)[C@H](O)[C@H](O[C@H]5[C@H](O)[C@H](O)[C@H](O[C@H]6[C@H](O)[C@H](O)[C@H](O[C@H]7[C@H](O)[C@H](O)C(O)O[C@@H]7C(=O)O)O[C@@H]6C(=O)O)O[C@@H]5C(=O)O)O[C@@H]4C(=O)O)O[C@@H]3C(=O)O)O[C@@H]2C(=O)O)[C@@H](O)[C@@H](O)[C@@H]1O (stereo partly drawn) [M7, beta-D-mannuronate heptasaccharide (heptamannuronate)]
16 | – | -4.2 ± 0.8 kcal/mol | 5.2 kcal/mol | -9.3 kcal/mol and -9.3 ± 0.1 kcal/mol | O=C(O)[C@H]1O[C@@H](O[C@H]2[C@H](O)[C@H](O)[C@H](O[C@H]3[C@H](O)[C@H](O)[C@H](O[C@H]4[C@H](O)[C@H](O)[C@H](O[C@H]5[C@H](O)[C@H](O)[C@H](O[C@H]6[C@H](O)[C@H](O)[C@H](O[C@H]7[C@H](O)[C@H](O)C(O)O[C@@H]7C(=O)O)O[C@@H]6C(=O)O)O[C@@H]5C(=O)O)O[C@@H]4C(=O)O)O[C@@H]3C(=O)O)O[C@@H]2C(=O)O)[C@@H](O)[C@@H](O)[C@@H]1O (some centres unmarked) [M7]
